Our source for the TGI values is PubChem BioAssay (NCI).

Test systems include OVCAR-3 ovarian; SR leukemia; SF-295 CNS; LOX IMVI melanoma; MDA-MB-231 breast; SNB-19 CNS; COLO 205 colon; SK-MEL-28 melanoma; SNB-75 CNS; SN12C renal; EKVX NSCLC; MALME-3M melanoma; HL-60(TB) leukemia; SF-539 CNS; DU-145 prostate; OVCAR-5 ovarian; HOP-62 NSCLC; PC-3 prostate; SW-620 colon; SK-OV-3 ovarian.
Holding throughout (assay): inhibition of tumour cell growth, NCI panel, 48 h

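Five compound concentrations were applied to cells in 96-well plates for 48 hours; endpoints were derived by simple linear interpolation of the resulting dose-response curve. The concentration for full growth arrest is given as TGI.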

For `CC1=NN(C(=O)CC(=O)Nc2ccc(C)cc2)C(=O)C1N=Nc1ccc(C(=O)O)cc1` (stereo not drawn), the TGI in the test on OVCAR-3 ovarian, in the test with SR leukemia, with SF-295 CNS, with LOX IMVI melanoma, with MDA-MB-231 breast and in the test with SNB-19 CNS was above 100 µM throughout. Besides, the TGI in the test with COLO 205 colon, in the test with SK-MEL-28 melanoma, in the test with SNB-75 CNS, with SN12C renal, with EKVX NSCLC and in the test with MALME-3M melanoma was above 100 µM in each case. Also, the TGI in the test on HL-60(TB) leukemia, in the test with SF-539 CNS, in the test on DU-145 prostate, in the test on OVCAR-5 ovarian, with HOP-62 NSCLC and in the test on PC-3 prostate was above 100 µM throughout. In the test on SW-620 colon, the TGI was above 100 µM.

In the case of `COc1cc(S(=O)(=O)Nc2nc(-c3ccc(N4C(=O)C(CC(=O)O)SC4c4ccccc4O)cc3)cs2)ccc1Cl` (stereo not drawn), the TGI in the test with OVCAR-3 ovarian, with SR leukemia, in the test with SK-OV-3 ovarian, with SF-295 CNS, in the test with LOX IMVI melanoma and in the test on MDA-MB-231 breast was above 100 µM throughout. Besides, the TGI with SNB-19 CNS, with COLO 205 colon, in the test with SK-MEL-28 melanoma, with SNB-75 CNS, in the test on SN12C renal and in the test with MALME-3M melanoma was above 100 µM in each case. Also, the TGI with HL-60(TB) leukemia was 57 µM; in the test with SF-539 CNS, above 100 µM; in the test on DU-145 prostate, above 100 µM; with OVCAR-5 ovarian it was above 100 µM; in the test on HOP-62 NSCLC it was above 100 µM; with PC-3 prostate, above 100 µM. Besides, in the test on SW-620 colon, the TGI is above 100 µM.

Turning to `COc1nc(C)nc2sc3c(c12)CCCC3`, the TGI in the test with OVCAR-3 ovarian, in the test on SR leukemia, with SF-295 CNS, in the test with LOX IMVI melanoma, in the test on MDA-MB-231 breast and with SNB-19 CNS was above 100 µM throughout. Besides, the TGI in the test on COLO 205 colon, with SK-MEL-28 melanoma, in the test with SNB-75 CNS, in the test on SN12C renal, in the test with EKVX NSCLC and in the test on MALME-3M melanoma was above 100 µM in each case. Also, the TGI in the test on HL-60(TB) leukemia, in the test with DU-145 prostate, in the test with OVCAR-5 ovarian, in the test on HOP-62 NSCLC, with PC-3 prostate and in the test on SW-620 colon was above 100 µM each time.

Turning to `Cc1cc([C@H](C#N)c2nc3ccccc3[nH]2)nc(Cl)n1`, the TGI in the test on SR leukemia, in the test with SK-OV-3 ovarian, in the test on SF-295 CNS, in the test with LOX IMVI melanoma, in the test with MDA-MB-231 breast and in the test on SNB-19 CNS was above 100 µM throughout. The TGI with COLO 205 colon is above 100 µM; in the test with SK-MEL-28 melanoma, above 100 µM; in the test with SNB-75 CNS it was 93.4 µM; in the test with SN12C renal, above 100 µM; in the test on EKVX NSCLC, above 100 µM; in the test on MALME-3M melanoma, above 100 µM. Further, the TGI in the test with HL-60(TB) leukemia, with SF-539 CNS, with DU-145 prostate, in the test on PC-3 prostate and in the test with SW-620 colon was above 100 µM in each case.

For the molecule `O=C1CC(CC(O)[C@@H]2CCCC[C@@H]2O)CC(=O)N1c1ccccc1` (stereo partly drawn), the TGI in the test on OVCAR-3 ovarian, in the test with SR leukemia, with SF-295 CNS, in the test on LOX IMVI melanoma, with MDA-MB-231 breast and in the test with SNB-19 CNS was above 100 µM in each case. In addition, the TGI in the test with SK-MEL-28 melanoma, with SNB-75 CNS, in the test on SN12C renal, in the test with MALME-3M melanoma, in the test with HL-60(TB) leukemia and in the test with SF-539 CNS was above 100 µM each time. Also, the TGI with DU-145 prostate, with OVCAR-5 ovarian, with HOP-62 NSCLC, in the test on PC-3 prostate and with SW-620 colon was above 100 µM in each case.

On to `COc1cc(/C=C(\C#N)c2nc3ccccc3o2)ccc1O`, for which the TGI in the test with OVCAR-3 ovarian is 40.9 µM; with SR leukemia, above 100 µM; in the test with SK-OV-3 ovarian, 36.7 µM; in the test with SF-295 CNS it was 36.8 µM; in the test with MDA-MB-231 breast, 68.5 µM; with SNB-19 CNS, above 100 µM. Besides, the TGI is 33 µM in the test on COLO 205 colon; 58.1 µM in the test with SK-MEL-28 melanoma; above 100 µM with SN12C renal; 49.6 µM in the test with EKVX NSCLC; 56.3 µM with MALME-3M melanoma; 55.3 µM in the test with HL-60(TB) leukemia. The TGI with SF-539 CNS amounted to 28.5 µM; with DU-145 prostate, 65.1 µM; in the test on OVCAR-5 ovarian it was 61.2 µM; in the test on HOP-62 NSCLC it was 52.8 µM; with PC-3 prostate, 66.4 µM.

`COC(=O)c1cc2c(o1)Sc1ccccc1NC2=O`: the TGI with OVCAR-3 ovarian, with SR leukemia, in the test on SK-OV-3 ovarian, in the test on SF-295 CNS, in the test with LOX IMVI melanoma and with MDA-MB-231 breast was above 100 µM throughout. Also, the TGI in the test with SNB-19 CNS is above 100 µM; in the test with COLO 205 colon, above 100 µM; with SK-MEL-28 melanoma, above 100 µM; in the test with SNB-75 CNS it was 66.6 µM; in the test on SN12C renal, above 100 µM; in the test with HL-60(TB) leukemia, above 100 µM. Also, the TGI in the test on SF-539 CNS, in the test with DU-145 prostate, in the test on OVCAR-5 ovarian, in the test on HOP-62 NSCLC, in the test on PC-3 prostate and in the test on SW-620 colon was above 100 µM throughout.

`O=[n+]1c2ccccc2n([O-])c2ccccc21`: the TGI in the test with SR leukemia, with SF-295 CNS, in the test with LOX IMVI melanoma, with MDA-MB-231 breast, in the test on SNB-19 CNS and in the test on COLO 205 colon was above 100 µM each time. Besides, the TGI in the test on SK-MEL-28 melanoma is above 100 µM; in the test with SNB-75 CNS it was above 100 µM; in the test on SN12C renal, above 100 µM; in the test with EKVX NSCLC, above 100 µM; in the test with MALME-3M melanoma, above 100 µM; in the test on HL-60(TB) leukemia it was 72.4 µM. Besides, the TGI with SF-539 CNS, in the test on DU-145 prostate, with OVCAR-5 ovarian, with HOP-62 NSCLC, with PC-3 prostate and in the test on SW-620 colon was above 100 µM throughout.
